Source: US20130302442A1, “METHODS OF USING (4S,4AS,5AR,12AS)-4-DIMETHYLAMINO-3,10,12,12A-TETRAHYDROXY-7-[(METHOXY(METHYL)AMINO)-METHYL]-1,11-DIOXO-1,4,4A,5,5A,6,11,12A-OCTAHYDRO-NAPHTHACENE-2-CARBOXYLIC ACID AMIDE” (priority 2012, published 2013)
Values after ≈ are worked out from the molar mass of the structure shown. Where two headings read alike, the source gives them in different places.

Key:
Test in all cases: In vitro MIC testing, antibacterial spectrum of activity
Type in all cases: cell-based
S. pyogenes = test system: S. pyogenes
S. agalactiae = test system: S. agalactiae
S. haemolyticus = S. haemolyticus (33 isolates)
[1] = test system: Streptococcus spp. [Group C]; details: Streptococcus spp. [Group C] (30 isolates)
E. faecalis = test system: E. faecalis
E. faecium = details: for MIC / MIC50 / MIC90: Enterococcus faecium; for MIC50: read-out: MIC50; for MIC90: read-out: MIC90
E. coli = details: Escherichia coli
K. pneumoniae = test system: K. pneumoniae
P. mirabilis = P. mirabilis (30 isolates)
P. aeruginosa = details: Pseudomonas aeruginosa; P. aeruginosa (11 isolates)
[2] = Klebsiella pneumoniae, K. pneumoniae (31 isolates)

`CON(C)Cc1ccc(O)c2c1C[C@H]1C[C@H]3[C@H](N(C)C)C(O)=C(C(N)=O)C(=O)[C@@]3(O)C(O)=C1C2=O` [The Active, (4S,4aS,5aR,12aS)-4-dimethylamino-3,10,12,12a-tetrahydroxy-7-[(methoxy(methyl)amino)-methyl]-1,11-dioxo-1,4,4a,5,5a,6,11,12a-octahydro-naphthacene-2-carboxylic acid amide] was tested, and the “MIC Range” value (S. pyogenes; S. pyogenes [tetS] (5 isolates)) was “≦0.06-0.25 μg/mL”, the MIC (S. pyogenes; Streptococcus pyogenes, S. pyogenes strain PBS # 330, tetO) was 16 µg/mL (≈ 32.8 µM) and the MIC (S. pyogenes; Streptococcus pyogenes, S. pyogenes strain PBS # 792, tetM) was 4 µg/mL (≈ 8.2 µM). The MIC50 (S. pyogenes; Streptococcus pyogenes, S. pyogenes (32 isolates), read-out: MIC50) was 0.12 µg/mL (≈ 0.246 µM), the MIC90 (S. pyogenes; Streptococcus pyogenes, S. pyogenes (32 isolates), read-out: MIC90) was 8 µg/mL (≈ 16.4 µM) and the “MIC Range” value (S. agalactiae; S. agalactiae (31 isolates)) was 0.12 to 32 µg/mL. For the same compound, the “MIC Range” value (S. agalactiae; S. agalactiae [tetR] (7 isolates)) was 16 to 32 µg/mL, the “MIC Range” value (S. agalactiae; S. agalactiae [tetS] (3 isolates)) was 0.125 to 0.25 µg/mL and the MIC (S. agalactiae; Streptococcus agalactiae, S. agalactiae strain PBS # 316, tetO) was 32 µg/mL (≈ 65.6 µM). For the same compound, the MIC (S. agalactiae; Streptococcus agalactiae, S. agalactiae strain PBS # 897, tetM) was 16 µg/mL (≈ 32.8 µM), the MIC90 (S. agalactiae; Streptococcus agalactiae, S. agalactiae (31 isolates), read-out: MIC90) was 16 µg/mL (≈ 32.8 µM) and the “MIC Range” value (S. haemolyticus) was 0.12 to 2 µg/mL. For the same compound, the MIC50 (S. haemolyticus; Staphylococcus haemolyticus, read-out: MIC50) was 0.12 µg/mL (≈ 0.246 µM), the MIC90 (S. haemolyticus; Staphylococcus haemolyticus, read-out: MIC90) was 2 µg/mL (≈ 4.1 µM) and the “MIC Range” value [1] was 0.12 to 16 µg/mL. For the same compound, the MIC50 ([1]; read-out: MIC50) was 0.25 µg/mL (≈ 0.513 µM), the MIC90 ([1]; read-out: MIC90) was 16 µg/mL (≈ 32.8 µM) and the “MIC Range” value (E. faecalis; E. faecalis [VSE] (31 isolates)) was 0.25 to 32 µg/mL. The “MIC Range” value (E. faecalis; E. faecalis [tetR] (6 isolates)) was 8 to 32 µg/mL, the MIC (E. faecalis; Enterococcus faecalis, E. faecalis strain PBS # 274, tetL) was 32 µg/mL (≈ 65.6 µM) and the MIC (E. faecalis; Enterococcus faecalis, E. faecalis strain PBS # 276, tetM) was 16 µg/mL (≈ 32.8 µM). For the same compound, the MIC (E. faecalis; Enterococcus faecalis, E. faecalis strain PBS # 949, tetS) was 8 µg/mL (≈ 16.4 µM), the MIC50 (E. faecalis; Enterococcus faecalis, E. faecalis [VSE] (31 isolates), read-out: MIC50) was 32 µg/mL (≈ 65.6 µM) and the MIC90 (E. faecalis; Enterococcus faecalis, E. faecalis [VSE] (31 isolates), read-out: MIC90) was 32 µg/mL (≈ 65.6 µM). For the same compound, the “MIC Range” value (E. faecium; E. faecium [VRE] (30 isolates)) was 0.12 to 32 µg/mL, the “MIC Range” value (E. faecium; E. faecium [VSE] (32 isolates)) was 0.12 to 32 µg/mL and the “MIC Range” value (E. faecium; E. faecium [tetR] (6 isolates)) was 8 to 32 µg/mL. It also gave an MIC (E. faecium; E. faecium strain PBS # 965, tetM) of 8 µg/mL (≈ 16.4 µM), an MIC (E. faecium; E. faecium strain PBS # 1323, tetK) of 8 µg/mL (≈ 16.4 µM) and an MIC (E. faecium; E. faecium strain PBS # 1324, tetO) of 16 µg/mL (≈ 32.8 µM). For the same compound, the MIC50 (E. faecium; E. faecium [VRE] (30 isolates)) was 2 µg/mL (≈ 4.1 µM), the MIC90 (E. faecium; E. faecium [VRE] (30 isolates)) was 32 µg/mL (≈ 65.6 µM) and the MIC50 (E. faecium; E. faecium [VSE] (32 isolates)) was 0.5 µg/mL (≈ 1.03 µM). The MIC90 (E. faecium; E. faecium [VSE] (32 isolates)) was 32 µg/mL (≈ 65.6 µM), the MIC (E. coli) was greater than 64 µg/mL and the MIC90 (E. coli) was greater than 64 µg/mL. The “MIC Range” value (K. pneumoniae; K. pneumoniae [tetS] (7 isolates)) was 16 to 64 µg/mL, the MIC50 (K. pneumoniae; [2]) was greater than 64 µg/mL and the MIC90 (K. pneumoniae; [2]) was greater than 64 µg/mL. For the same compound, the MIC (K. pneumoniae; Klebsiella pneumoniae, K. pneumoniae strain PBS # 266, tetD) was greater than 64 µg/mL, the “MIC Range” value (P. mirabilis) was greater than 64 µg/mL and the MIC50 (P. mirabilis; Proteus mirabilis) was greater than 64 µg/mL. It also gave an MIC90 (P. mirabilis; Proteus mirabilis) greater than 64 µg/mL, an MIC50 (P. aeruginosa) greater than 64 µg/mL and an MIC90 (P. aeruginosa) greater than 64 µg/mL.
